Results from patent EP4660184A1 (Eurofarma Laboratórios S.A., priority 2023, dated 2024).

Assays:
[1] = target: T1, human sodium channels Nav 1.8 (Homo sapiens, UniProt Q9Y5Y9); assay: Automated whole-cell voltage-clamp (ScreenPatch 384P) sodium current block, Nav 1.8; assay type: cell-based; settings: CHO cells stably expressing human Nav 1.8; inactivation step -40 mV for 8 seconds, test step 10 mV (TP1A); exposure at least five minutes; room temperature; mean if two or more assays; read-out: Nav1.8 IC50
T1 construct: expressed in transfected cells
T1 sequence (Q9Y5Y9 whole entry): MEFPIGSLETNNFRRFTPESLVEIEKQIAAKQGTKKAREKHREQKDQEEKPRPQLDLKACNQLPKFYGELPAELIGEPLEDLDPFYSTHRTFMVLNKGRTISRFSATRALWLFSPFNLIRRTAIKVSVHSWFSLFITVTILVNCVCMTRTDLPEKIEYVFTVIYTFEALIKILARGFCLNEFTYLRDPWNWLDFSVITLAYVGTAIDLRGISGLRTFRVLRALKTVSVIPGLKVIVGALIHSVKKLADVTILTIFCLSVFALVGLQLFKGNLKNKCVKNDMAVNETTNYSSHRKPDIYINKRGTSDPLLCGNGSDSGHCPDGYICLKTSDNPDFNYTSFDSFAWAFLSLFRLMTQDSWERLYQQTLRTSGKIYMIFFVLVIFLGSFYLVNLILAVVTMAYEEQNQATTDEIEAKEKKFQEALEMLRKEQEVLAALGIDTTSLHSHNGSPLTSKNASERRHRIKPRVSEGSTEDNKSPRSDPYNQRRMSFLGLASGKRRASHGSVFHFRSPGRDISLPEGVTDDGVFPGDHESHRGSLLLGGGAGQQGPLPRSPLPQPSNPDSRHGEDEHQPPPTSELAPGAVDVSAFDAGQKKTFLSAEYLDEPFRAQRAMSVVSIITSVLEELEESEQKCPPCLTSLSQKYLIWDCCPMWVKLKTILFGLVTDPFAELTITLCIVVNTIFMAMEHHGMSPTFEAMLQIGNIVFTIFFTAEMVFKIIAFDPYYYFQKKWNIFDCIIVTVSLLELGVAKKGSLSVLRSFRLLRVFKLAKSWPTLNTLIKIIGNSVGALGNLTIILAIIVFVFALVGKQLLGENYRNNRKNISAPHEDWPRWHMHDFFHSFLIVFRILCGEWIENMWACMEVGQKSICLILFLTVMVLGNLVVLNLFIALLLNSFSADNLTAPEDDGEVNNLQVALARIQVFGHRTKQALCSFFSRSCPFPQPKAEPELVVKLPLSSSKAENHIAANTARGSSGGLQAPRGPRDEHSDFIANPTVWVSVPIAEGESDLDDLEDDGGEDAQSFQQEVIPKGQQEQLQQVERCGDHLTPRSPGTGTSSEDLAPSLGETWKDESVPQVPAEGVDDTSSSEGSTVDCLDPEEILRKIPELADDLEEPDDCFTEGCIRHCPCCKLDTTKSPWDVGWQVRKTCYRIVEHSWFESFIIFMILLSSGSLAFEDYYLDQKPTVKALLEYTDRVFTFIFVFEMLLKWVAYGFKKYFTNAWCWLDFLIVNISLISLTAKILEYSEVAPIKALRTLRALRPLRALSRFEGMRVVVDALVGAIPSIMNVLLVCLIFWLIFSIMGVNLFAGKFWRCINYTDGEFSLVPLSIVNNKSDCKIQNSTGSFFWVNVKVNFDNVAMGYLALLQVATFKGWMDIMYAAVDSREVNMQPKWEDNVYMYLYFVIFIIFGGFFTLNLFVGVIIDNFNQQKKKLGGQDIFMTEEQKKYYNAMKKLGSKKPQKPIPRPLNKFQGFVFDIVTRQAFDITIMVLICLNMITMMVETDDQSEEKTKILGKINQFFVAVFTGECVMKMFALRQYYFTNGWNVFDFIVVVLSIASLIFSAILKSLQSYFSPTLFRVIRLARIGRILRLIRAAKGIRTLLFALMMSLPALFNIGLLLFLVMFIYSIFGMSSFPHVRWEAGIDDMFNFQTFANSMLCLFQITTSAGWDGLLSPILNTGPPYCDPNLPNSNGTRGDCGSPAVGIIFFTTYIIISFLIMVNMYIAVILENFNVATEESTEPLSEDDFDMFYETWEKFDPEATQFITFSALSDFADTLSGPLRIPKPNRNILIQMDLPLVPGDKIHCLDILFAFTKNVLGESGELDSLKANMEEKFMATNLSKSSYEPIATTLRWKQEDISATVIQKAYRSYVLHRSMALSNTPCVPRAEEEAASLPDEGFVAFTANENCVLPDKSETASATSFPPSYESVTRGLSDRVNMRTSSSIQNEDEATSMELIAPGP
Procedure, shortened: (§1)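 CHO cells stably expressing human Nav1.7 or Nav1.8 were recorded by automated whole-cell clamp with ≥5 min compound exposure, eight concentrations, at room temperature, pH 7.4 external. From -100 mV, cells were held at -40 mV for 8 s, then -100 mV for 20 ms, then a test pulse at 10 mV (Nav1.8) or 0 mV (Nav1.7), at 0.05 Hz. Peak current % block was fitted to give IC50, averaged across assays.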

[2] = target: T2, human sodium channels Nav 1.7 (Homo sapiens, UniProt Q15858); assay: Automated whole-cell voltage-clamp (ScreenPatch 384P) sodium current block, Nav 1.7; assay type: cell-based; settings: CHO cells stably expressing human Nav 1.7; inactivation step -40 mV for 8 seconds, test step 0 mV (TP1A); exposure at least five minutes; room temperature; mean if two or more assays; read-out: Nav1.7 IC50
T2 construct: expressed in transfected cells
T2 sequence (Q15858 whole entry): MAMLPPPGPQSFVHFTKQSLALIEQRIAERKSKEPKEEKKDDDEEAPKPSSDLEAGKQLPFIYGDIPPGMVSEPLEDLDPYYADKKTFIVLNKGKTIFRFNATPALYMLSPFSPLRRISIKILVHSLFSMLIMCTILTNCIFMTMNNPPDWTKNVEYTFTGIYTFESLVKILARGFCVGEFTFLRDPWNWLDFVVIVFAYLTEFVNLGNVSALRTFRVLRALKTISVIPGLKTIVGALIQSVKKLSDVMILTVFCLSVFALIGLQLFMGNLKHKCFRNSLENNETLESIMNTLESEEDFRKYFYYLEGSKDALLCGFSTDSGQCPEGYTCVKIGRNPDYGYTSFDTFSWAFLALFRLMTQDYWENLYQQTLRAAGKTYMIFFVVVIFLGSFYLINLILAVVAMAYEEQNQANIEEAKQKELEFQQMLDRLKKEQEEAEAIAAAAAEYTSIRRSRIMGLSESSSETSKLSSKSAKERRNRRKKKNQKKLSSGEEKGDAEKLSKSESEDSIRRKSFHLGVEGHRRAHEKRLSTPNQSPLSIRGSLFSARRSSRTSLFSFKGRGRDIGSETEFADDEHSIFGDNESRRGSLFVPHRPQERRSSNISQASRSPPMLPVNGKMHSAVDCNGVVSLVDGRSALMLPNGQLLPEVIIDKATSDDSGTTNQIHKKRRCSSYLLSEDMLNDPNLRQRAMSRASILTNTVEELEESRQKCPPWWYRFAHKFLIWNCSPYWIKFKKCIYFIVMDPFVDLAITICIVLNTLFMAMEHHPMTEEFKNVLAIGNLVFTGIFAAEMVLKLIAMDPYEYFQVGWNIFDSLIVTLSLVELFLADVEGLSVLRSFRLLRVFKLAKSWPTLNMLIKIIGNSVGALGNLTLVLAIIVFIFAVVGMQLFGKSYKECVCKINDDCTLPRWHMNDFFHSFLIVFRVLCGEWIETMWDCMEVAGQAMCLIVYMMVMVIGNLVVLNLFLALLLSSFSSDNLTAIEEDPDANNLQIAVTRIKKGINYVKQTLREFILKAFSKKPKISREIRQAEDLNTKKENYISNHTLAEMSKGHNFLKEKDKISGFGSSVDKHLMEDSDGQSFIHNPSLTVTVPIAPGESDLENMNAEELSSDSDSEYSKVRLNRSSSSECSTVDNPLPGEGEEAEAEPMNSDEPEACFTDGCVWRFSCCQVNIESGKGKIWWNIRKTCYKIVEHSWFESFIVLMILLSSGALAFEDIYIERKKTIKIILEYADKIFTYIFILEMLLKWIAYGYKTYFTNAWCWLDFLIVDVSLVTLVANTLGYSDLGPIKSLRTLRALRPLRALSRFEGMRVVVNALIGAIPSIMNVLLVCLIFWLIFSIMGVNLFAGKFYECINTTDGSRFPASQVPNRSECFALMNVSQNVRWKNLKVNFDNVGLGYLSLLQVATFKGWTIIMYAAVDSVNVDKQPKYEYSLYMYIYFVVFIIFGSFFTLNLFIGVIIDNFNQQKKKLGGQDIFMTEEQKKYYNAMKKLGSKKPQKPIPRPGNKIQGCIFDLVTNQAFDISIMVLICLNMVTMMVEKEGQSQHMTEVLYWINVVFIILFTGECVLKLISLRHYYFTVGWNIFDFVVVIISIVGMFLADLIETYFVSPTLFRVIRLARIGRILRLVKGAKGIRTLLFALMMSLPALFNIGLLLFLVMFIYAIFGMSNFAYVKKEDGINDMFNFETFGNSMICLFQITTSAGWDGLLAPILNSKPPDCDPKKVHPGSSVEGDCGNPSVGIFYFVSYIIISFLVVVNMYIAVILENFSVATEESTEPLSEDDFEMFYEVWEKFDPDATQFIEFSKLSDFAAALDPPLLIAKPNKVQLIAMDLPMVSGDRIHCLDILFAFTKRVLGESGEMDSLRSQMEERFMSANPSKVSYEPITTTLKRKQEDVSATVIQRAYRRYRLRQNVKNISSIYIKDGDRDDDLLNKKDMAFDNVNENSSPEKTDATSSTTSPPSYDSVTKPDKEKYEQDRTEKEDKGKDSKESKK
Procedure, shortened: as §1

| Compound | IC50 [1] [nM] | IC50 [2] [nM] |
| --- | --- | --- |
| CCOc1ccc(-c2cncc(C(=O)NOCc3cccc(OC)c3)n2)cc1 [Compound 5, 6-(4-ethoxyphenyl)-N-((3-methoxybenzyl)oxy)pyrazine-2-carboxamide] | < 500 | > 1000 |
| COc1ccc(F)c(CONC(=O)c2cncc(-c3ccc(OC(F)(F)F)nc3)n2)c1 [Compound 76] | < 500 | 500 to 1000 |
| CCOc1ccc(-c2cncc(C(=O)NOCc3cc(OC)ccc3F)n2)c(OC)c1 [Compound 87] | < 500 | > 1000 |
| CCOc1ccc(-c2cncc(C(=O)NOCc3cc(OC)ccc3O)n2)cc1 [Compound 16, 6-(4-ethoxyphenyl)-N-((2-hydroxy-5-methoxybenzyl)oxy)pyrazine-2-carboxamide] | > 1000 | > 1000 |
| COc1ccc(F)c(CONC(=O)c2cncc(-c3ccc(OC(F)F)nc3)c2)c1 [Compound 116] | < 500 | > 1000 |
